The source of these data is US20240190854A1, “PYRIMIDINE OR PYRIDINE DERIVATIVES USEFUL AS HCN2 MODULATORS” (King's College London, priority 2021, published 2024).

For orientation: ED50 means the dose that gives a 50% effect, or the effect in half of the subjects. For orientation: pIC50 means −log10 of the IC50, conventionally taken in molar units. Usually efflux ratio stands for the permeability from basolateral to apical divided by that in the opposite direction, in the common usage.

The subject of data set [1] is mouse neuropathic pain model (partial sciatic nerve ligation). Briefly: Mouse neuropathic pain model (PSNL), von Frey filament. To be noted: for Mechanical analgesia (von Frey): day 5 after PSNL. Format: in vivo. On the procedure: The model used was analogous to the model described in Seltzer Z, Dubner R, & Shir Y (1990), A novel behavioural model of neuropathic pain disorders produced in rats by partial sciatic nerve injury, Pain 43: 205-218). […] Sci Transl Med 9: eaam6072.
The mechanical pain threshold was measured by manual von Frey filament applied to hind paw on the operated side, using the “up-down” method.
Mechanical pain threshold was measured as in Example 133 1 day before and 8 days after partial sciatic nerve ligation (PSNL) neuropathic pain induction. The test compound was administered at a low dose of 0.2 mg/kg every two hours with a control arm of vehicle only injections.
Mechanical pain threshold was measured as in Example 133 1 day before and 5-8 days after partial sciatic nerve ligation (PSNL) neuropathic pain induction. The test compound was administered at a dose of 0.5 mg/kg twice-daily at 8 hour intervals with a control arm of vehicle only injections, and mechanical pain threshold was measured 4 hours after the first injection.

Data set [2] has the same test system. The data set is described as follows: Mouse neuropathic pain model, paw pressure (Randall Sellito test). Format: in vivo.
The target in the next data set is HCN2 (Homo sapiens (Human), UniProt Q9UL51). Briefly: HCN2 current assay using the Sophion Qube. Format: cell-based. To be noted: Sophion Qube protocol; read-out: SQ HCN2 IC50. As to the method: (§1) Example 126B, Using the Sophion Qube
(§2) Solutions for recording HCN currents were:
(§3) This voltage protocol was applied every 20 seconds for the duration of the experiment. Both the vehicle (0.3% DMSO) and full block (3 mM CsCl) addition periods were applied for 10 experimental sweeps each.
(§4) The current amplitudes were measured by subtracting metric A from metric B (see FIG. 2) with inhibition calculated by normalising to the vehicle addition (0.3% DMSO) and full inhibition by 3 mM CsCl in the same well.
(§5) In total, compound was applied to the well for 600 seconds.

Another data set addresses hERG channel (Homo sapiens (Human), UniProt Q12809). The data set is described as follows: hERG assay using Sophion Qube. The class given is cell-based. To be noted: Sophion Qube protocol; read-out: SQ hERG IC50. As to the method: Example 127B, Using Sophion Qube
Solutions for recording hERG currents were:
This voltage protocol was applied every 15 seconds for the duration of the experiment. Both the vehicle and 1st compound addition periods were applied for 10 sweeps. The 2nd compound addition period was applied for 20 sweeps. The compound concentration was added to the test well twice to assure complete exchange of the external buffer with the test compound. In total, compound was applied to the well for 450 seconds.
On the technique in general: hERG is a cardiac potassium channel; its block is linked to QT prolongation.

For another data set, the target named is hNav1.5 (Homo sapiens (Human), UniProt Q14524).
The target of another data set is HCN4 (Homo sapiens (Human), UniProt Q9Y3Q4). The data set is described as follows: HCN4 current assay using the Sophion Qube. Format: cell-based. To be noted: Sophion Qube protocol; read-out: SQ HCN4 IC50. As to the method:
as §1, §2, §3, §4, §5

For the next data set, the target named is MDR1 (P-glycoprotein) (Homo sapiens (Human), UniProt P08183). The data set is described as follows: in vitro. Particulars: dog, MDCK-MDR1, pH 7.4.
The target in another data set is HCN1 (Homo sapiens (Human), UniProt O60741). Briefly: HCN1 current assay using the Sophion Qube. Particulars: Sophion Qube protocol; read-out: SQ HCN1 IC50. Format: cell-based. On the procedure: as §1, §2, §3, §4, §5
The nature of data set [3]: CNS penetration: plasma, brain and auditory nerve levels. The class given is in vivo. To be noted: guinea pig, auditory nerve, other: injection; 30 min after injection, n=2, preliminary; read-out: Ratio of total concentrations auditory nerve : plasma. On the procedure:
Ivabradine in guinea pig plasma, brain (somatosensory cortex) and auditory nerve were assayed at 30 min after injection, the time used in Example 130.

For data set [4], the system named is guinea pigs, salicylate-induced tinnitus. The data set is described as follows: GPIAS test, short-term salicylate tinnitus model. Format: in vivo, guinea pig. To be noted: salicylate 350 mg/kg i.p.; ivabradine 5 mg/kg s.c. The source says:
(§6) Tinnitus in guinea pigs was monitored using the gap induced inhibition of the acoustic startle (GPIAS) test (see FIG. 5). GPIAS is reduced when tinnitus was present; see Berger, J. I. et al. Effects of the cannabinoid CB1 agonist ACEA on salicylate ototoxicity, hyperacusis and tinnitus in guinea pigs. Hearing research, (2017), and Coomber, B. et al. Neural changes accompanying tinnitus following unilateral acoustic trauma in the guinea pig. Eur J Neurosci 40, 2427-2441, (2014).
(§7) In FIG. 5, sound stimulus (above) and corresponding pinna reflex (below) are shown in freely moving guinea pigs. Stimuli with no gap and gap are presented in a randomised order. Traces contaminated by movement (the upper trace in “no gap”) were removed before analysis.
Tinnitus was induced within 1-2 hours in humans by high doses of salicylate. A similar short-term tinnitus model was implemented in guinea pigs by i.p. injection of salicylate. In all animals, salicylate caused behavioural inhibition of GPIAS (see bar 2 in FIG. 6).
Salicylate (350 mg/kg, i.p.) impairs behavioural gap detection 2 h after salicylate administration (see bar 2 in of FIG. 6). Gap detection was restored by blocking HCN channels with ivabradine (5 mg/kg, s.c.).

Another data set concerns Black6 mice. To be noted: mouse, in vivo; cited from earlier work.
For a further data set, the system named is mice, normal hearing. Format: in vivo. To be noted: adult mice; Example 29 at 20 mg/kg ip.
Data set [5] relates to guinea pigs, noise-exposure tinnitus. The data set is described as follows: GPIAS test, noise-exposure tinnitus model. The class given is in vivo, guinea pig.
Description: as §6, §7
The noise-exposure model is more clinically relevant than the salicylate model, as it parallels a common cause of tinnitus in humans. A second important point is that it is long-term, while tinnitus induced by salicylate is rapidly reversed following salicylate exposure.

pIC50: −log10 of the molar value. Entries after “also recorded” stand apart in the source; their conditions may differ. Where a name gives a salt, the structure may show the parent alone.

Chain of MDR1 (P-glycoprotein) (P08183 whole entry): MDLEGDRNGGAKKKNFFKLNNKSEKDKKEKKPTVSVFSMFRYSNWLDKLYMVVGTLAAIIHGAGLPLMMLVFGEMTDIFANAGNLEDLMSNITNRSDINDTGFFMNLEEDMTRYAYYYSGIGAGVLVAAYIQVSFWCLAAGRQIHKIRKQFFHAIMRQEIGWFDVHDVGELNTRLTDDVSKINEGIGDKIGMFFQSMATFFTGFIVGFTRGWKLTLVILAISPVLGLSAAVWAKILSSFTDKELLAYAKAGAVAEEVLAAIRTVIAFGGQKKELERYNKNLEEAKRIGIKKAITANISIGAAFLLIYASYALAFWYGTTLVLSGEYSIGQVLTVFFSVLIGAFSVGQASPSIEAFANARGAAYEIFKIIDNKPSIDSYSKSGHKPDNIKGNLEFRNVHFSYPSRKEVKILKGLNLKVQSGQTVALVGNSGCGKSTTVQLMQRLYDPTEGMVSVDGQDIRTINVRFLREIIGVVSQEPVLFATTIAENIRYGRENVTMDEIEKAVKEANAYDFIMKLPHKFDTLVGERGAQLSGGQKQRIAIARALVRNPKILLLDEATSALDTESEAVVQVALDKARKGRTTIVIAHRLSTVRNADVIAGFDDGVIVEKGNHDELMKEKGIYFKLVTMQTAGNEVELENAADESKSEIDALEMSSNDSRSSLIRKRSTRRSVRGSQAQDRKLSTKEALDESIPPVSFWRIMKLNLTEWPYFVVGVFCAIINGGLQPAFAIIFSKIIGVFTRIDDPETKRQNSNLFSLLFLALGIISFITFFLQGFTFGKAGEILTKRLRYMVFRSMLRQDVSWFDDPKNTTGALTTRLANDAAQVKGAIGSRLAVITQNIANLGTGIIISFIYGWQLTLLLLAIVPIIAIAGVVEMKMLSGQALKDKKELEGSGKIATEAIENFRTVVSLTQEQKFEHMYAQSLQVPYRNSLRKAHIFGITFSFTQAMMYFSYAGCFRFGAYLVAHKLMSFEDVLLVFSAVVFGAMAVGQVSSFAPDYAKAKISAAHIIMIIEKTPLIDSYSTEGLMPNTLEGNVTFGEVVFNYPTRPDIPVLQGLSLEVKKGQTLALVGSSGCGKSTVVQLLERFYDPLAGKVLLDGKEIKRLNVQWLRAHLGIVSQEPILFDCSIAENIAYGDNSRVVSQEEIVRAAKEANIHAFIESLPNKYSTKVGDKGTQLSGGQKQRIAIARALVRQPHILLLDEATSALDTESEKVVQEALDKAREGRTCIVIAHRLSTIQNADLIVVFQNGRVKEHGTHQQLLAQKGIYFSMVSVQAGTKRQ
Chain of hERG channel (Q12809 whole entry): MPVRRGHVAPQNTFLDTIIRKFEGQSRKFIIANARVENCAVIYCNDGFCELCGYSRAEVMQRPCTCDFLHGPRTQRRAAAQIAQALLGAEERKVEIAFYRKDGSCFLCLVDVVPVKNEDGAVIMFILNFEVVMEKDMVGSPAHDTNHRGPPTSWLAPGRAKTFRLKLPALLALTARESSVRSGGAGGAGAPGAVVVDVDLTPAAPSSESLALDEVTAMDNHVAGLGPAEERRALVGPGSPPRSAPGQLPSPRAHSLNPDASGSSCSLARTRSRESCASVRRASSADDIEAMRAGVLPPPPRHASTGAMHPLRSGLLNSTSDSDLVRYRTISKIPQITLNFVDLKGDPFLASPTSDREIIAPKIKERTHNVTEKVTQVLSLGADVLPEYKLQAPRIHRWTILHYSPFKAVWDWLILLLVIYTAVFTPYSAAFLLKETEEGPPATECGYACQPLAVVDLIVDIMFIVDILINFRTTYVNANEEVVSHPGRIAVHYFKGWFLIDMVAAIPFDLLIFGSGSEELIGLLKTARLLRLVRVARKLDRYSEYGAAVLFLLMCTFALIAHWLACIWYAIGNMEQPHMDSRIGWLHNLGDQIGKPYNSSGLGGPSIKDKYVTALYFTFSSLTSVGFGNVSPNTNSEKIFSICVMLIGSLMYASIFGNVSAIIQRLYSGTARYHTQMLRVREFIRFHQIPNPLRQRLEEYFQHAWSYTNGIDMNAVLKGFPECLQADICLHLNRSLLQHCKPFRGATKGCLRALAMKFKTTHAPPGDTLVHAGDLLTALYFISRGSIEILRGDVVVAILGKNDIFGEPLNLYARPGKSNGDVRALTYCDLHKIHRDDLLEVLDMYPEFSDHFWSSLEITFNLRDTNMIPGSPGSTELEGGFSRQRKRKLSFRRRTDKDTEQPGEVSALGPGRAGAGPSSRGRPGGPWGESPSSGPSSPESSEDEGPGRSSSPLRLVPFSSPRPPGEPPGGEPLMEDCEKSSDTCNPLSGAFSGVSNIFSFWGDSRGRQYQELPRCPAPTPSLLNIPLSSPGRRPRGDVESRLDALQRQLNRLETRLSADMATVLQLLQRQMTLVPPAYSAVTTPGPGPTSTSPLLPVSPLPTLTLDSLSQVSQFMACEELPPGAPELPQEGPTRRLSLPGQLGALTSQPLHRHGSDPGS
Chain of hNav1.5 (Q14524 whole entry): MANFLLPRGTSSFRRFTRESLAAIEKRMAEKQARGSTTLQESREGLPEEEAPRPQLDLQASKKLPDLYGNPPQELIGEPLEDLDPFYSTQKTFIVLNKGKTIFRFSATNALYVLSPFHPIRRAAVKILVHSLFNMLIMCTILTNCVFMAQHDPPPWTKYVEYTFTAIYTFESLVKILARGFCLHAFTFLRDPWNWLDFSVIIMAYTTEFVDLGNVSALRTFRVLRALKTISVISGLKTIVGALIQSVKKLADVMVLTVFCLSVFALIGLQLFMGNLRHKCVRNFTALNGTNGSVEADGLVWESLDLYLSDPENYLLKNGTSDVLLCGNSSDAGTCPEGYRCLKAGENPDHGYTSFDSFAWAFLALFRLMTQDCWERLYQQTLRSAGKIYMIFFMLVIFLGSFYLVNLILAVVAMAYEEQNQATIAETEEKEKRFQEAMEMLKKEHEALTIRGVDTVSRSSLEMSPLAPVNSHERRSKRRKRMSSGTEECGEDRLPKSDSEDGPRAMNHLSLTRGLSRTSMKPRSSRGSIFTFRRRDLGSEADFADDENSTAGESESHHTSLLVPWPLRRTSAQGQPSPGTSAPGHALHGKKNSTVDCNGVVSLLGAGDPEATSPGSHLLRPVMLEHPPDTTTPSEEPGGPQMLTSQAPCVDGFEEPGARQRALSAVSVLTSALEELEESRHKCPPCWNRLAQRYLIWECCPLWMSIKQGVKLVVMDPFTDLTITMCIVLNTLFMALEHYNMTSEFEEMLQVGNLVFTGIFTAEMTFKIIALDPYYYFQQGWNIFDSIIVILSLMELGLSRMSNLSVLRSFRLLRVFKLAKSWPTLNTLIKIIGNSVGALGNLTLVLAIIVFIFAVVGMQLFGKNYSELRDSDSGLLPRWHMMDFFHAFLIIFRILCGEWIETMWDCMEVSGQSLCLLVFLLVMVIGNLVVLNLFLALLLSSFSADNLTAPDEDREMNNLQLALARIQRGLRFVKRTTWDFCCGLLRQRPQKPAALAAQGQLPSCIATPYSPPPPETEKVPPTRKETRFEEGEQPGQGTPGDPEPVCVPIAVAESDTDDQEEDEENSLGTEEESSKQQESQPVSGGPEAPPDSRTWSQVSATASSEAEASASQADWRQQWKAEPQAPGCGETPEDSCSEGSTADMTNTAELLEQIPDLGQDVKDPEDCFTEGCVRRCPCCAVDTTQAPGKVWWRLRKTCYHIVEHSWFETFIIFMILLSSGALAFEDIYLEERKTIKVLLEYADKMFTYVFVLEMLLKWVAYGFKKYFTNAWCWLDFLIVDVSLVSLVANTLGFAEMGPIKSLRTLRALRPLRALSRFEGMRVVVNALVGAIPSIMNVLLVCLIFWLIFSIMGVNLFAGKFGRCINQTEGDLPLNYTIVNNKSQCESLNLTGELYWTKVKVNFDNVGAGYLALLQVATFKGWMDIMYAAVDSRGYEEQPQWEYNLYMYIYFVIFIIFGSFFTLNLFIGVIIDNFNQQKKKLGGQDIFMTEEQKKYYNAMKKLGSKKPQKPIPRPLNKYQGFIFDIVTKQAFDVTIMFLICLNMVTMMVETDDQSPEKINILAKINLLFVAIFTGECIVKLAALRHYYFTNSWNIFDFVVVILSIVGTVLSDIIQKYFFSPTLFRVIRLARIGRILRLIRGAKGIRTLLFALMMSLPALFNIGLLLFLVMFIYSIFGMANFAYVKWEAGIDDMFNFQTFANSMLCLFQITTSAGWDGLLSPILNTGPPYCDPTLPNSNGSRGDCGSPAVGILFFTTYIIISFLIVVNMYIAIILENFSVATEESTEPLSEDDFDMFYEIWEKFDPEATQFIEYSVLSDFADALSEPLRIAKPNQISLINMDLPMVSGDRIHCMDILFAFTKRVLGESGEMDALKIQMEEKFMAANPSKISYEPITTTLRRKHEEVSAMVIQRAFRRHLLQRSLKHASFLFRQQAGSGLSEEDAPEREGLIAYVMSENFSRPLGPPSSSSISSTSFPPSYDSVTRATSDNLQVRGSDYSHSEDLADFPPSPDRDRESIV
Description for MDR1 (P-glycoprotein): Test compounds were added (10 μM, 0.1% DMSO final, n=2) to donor compartments of the Transwell plate assembly in assay buffer (Hanks balanced salt solution supplemented with 25 mM HEPES, adjusted to pH 7.4) for both apical to basolateral (A>B) and basolateral to apical (B>A) measurements. A parallel series of incubations were performed in the presence of the transporter inhibitor elacridar (5 μM) which was added to both compartments in the transwell plate. Incubations were performed at 37° C., with samples removed from both donor and acceptor chambers at T=0 and 1 hour for recovery assessment and compound analysed by mass spectrometry (LC-MS/MS), including an analytical internal standard.
Apparent permeability (Papp) values were determined from the relationship:
Where V is the volume of each Transwell compartment (apical 125 μL, basolateral 600 μL), and concentrations are the relative MS responses for compound (normalized to internal standard) in the donor chamber before incubation and acceptor chamber at the end of the incubation.
Area=area of cells exposed for drug transfer (0.33 cm2).
Efflux ratios (Papp B>A/Papp A>B) were calculated for each compound from the mean Papp values in each direction. […] The efflux ratios were also calculated in the same way from the runs carried out in the presence of the inhibitor. The net flux is the ratio of the efflux in the absence of inhibitor to that in the presence of inhibitor.
Lucifer Yellow (LY) was added to the apical buffer in all wells to assess viability of the cell layer.
Compound recovery from the wells was determined from MS responses (normalized to internal standard) in donor and acceptor chambers at the end of incubation compared to response in the donor chamber pre-incubation.
Description for hNav1.5: The cells were held at −100 mV followed by a depolarising step to −10 mV for 100 milliseconds before stepping back to −100 mV, this represents 1 experimental sweep.
For tonic block (0.1 Hz), the peak currents evoked by the step to −10 mV were measured for the analysis of the percentage inhibition by test compounds. For use-dependent block (4 Hz), the peak current evoked at the 20th depolarising step to −10 mV was measured for the analysis of the percentage inhibition by test compounds. Peak currents were first normalised to the vehicle addition (0.3% DMSO) in the same well.

In the case of `CS(=O)(=O)c1ccc(F)c(C[C@H](N)c2ccccc2-c2noc3ccccc23)n1` [Example 5, (S)-1-[2-(Benzo[d]isoxazol-3-yl)phenyl]-2-[3-fluoro-6-(methylsulfonyl)pyridine-2-yl]ethan-1-amine hydrochloride], the “Mechanical analgesia (von Frey)” value in data set [1] (0.1 mg/kg i.p.) was “partial analgesia”; in data set [1] (0.5 mg/kg i.p.), “full analgesia”. In addition, the “Mechanical analgesia (von Frey), first dose” value in data set [1] (0.2 mg/kg every two hours, first dose) is “only partial analgesia”. Also, in [1] (0.2 mg/kg every two hours, subsequent doses), the “Mechanical analgesia (von Frey), subsequent doses” value is given as “increase in analgesia towards full analgesia”. The “Mechanical analgesia (von Frey), successive doses over 4 days” value in data set [1] (0.5 mg/kg twice-daily at 8 hour intervals, 4 days) was “full and sustained analgesia”. The “Mechanical analgesia (von Frey), 4 hours after first injection” value in data set [1] (0.5 mg/kg twice-daily at 8 hour intervals, first injection) is recorded as “little analgesia”. Further, the ED50 in data set [1] (Mus musculus, ip, maximal analgesia, n=3-4 mice, read-out: Analgesic ED50) is 0.17 mg/kg. For the same molecule, the “Analgesia, paw pressure (Randall Sellito)” value is “partial analgesia” in data set [2] (0.1 mg/kg i.p.) and “full analgesia” in [2] (0.5 mg/kg i.p.).

On to `Cc1ccc2c(-c3ccccc3[C@@H](N)Cc3nc(S(C)(=O)=O)ccc3F)noc2c1` [Example 11, (S)-2-(3-Fluoro-6-methylsulfonylpyridine-2-yl)-1-[2-(6-methylbenzo[d]isoxazol-3-yl)phenyl]ethan-1-amine hydrochloride], for which the negative-log IC50 (pIC50) was 5.49 at HCN2, 5.33 at hERG channel, 4.67 at hNav1.5 and 4.52 at HCN4. Further, the efflux ratio at 1 h, 10 μM at MDR1 (P-glycoprotein) was 5.2.

With `CS(=O)(=O)c1ccc(F)c(C[C@H](N)c2ccccc2-c2noc3cc(Cl)ccc23)n1` [Example 13, (S)-1-[2-(6-Chlorobenzo[d]isoxazol-3-yl)phenyl]-2-(3-fluoro-6-methylsulfonylpyridine-2-yl)ethan-1-amine hydrochloride], the pIC50 on HCN2 is 5.59; at hERG channel, 5.85; on HCN1, 5.49; against hNav1.5, 4.82; at HCN4, less than 4.52. On MDR1 (P-glycoprotein), the efflux ratio at 1 h, 10 μM was determined as 6.2.

As for `Cc1ccc2c(-c3ccccc3[C@@H](N)Cc3nc(S(C)(=O)=O)ccc3C)noc2c1` [Example 19, (S)-2-(3-Methyl-6-methylsulfonylpyridin-2-yl)-1-[2-(6-methylbenzo[d]isoxazol-3-yl)phenyl]ethan-1-amine hydrochloride], the negative-log IC50 (pIC50) was 5.85 at HCN2; 5.89 at hERG channel; 5.54 at HCN1; 4.94 against hNav1.5; 4.88 at HCN4. The efflux ratio at 1 h, 10 μM on MDR1 (P-glycoprotein) came out at 12.4.

As to `CS(=O)(=O)c1ccc(F)c(C[C@H](N)c2ccccc2-c2noc3cc(F)ccc23)n1` [Example 20, (S)-2-(3-Fluoro-6-methylsulfonylpyridin-2-yl)-1-[2-(6-fluorobenzo[d]isoxazol-3-yl)phenyl]ethan-1-amine hydrochloride], the pIC50 at HCN2 was 5.51; on hERG channel it was 5.54; on HCN1, 4.77; at hNav1.5, 4.55; at HCN4, less than 4.52. Moreover, the efflux ratio at 1 h, 10 μM at MDR1 (P-glycoprotein) amounted to 6.2.

In the case of `CS(=O)(=O)c1ccc(F)c(C[C@H](N)c2ccccc2-c2noc3ccc(F)cc23)n1` [Example 22, (S)-1-[2-(5-Fluorobenzo[d]isoxazol-3-yl)phenyl]-2-(3-fluoro-6-methylsulfonylpyridin-2-yl)ethan-1-amine hydrochloride], the negative-log IC50 (pIC50) is 5.24 on hERG channel, 4.56 at HCN1, 4.62 against hNav1.5 and 4.68 at HCN4.

On to `Cc1ccc(S(C)(=O)=O)nc1C[C@H](N)c1ccccc1-c1noc2cc(F)ccc12` [Example 24, (S)-1-[2-(6-Fluorobenzo[d]isoxazol-3-yl)phenyl]-2-(3-methyl-6-methylsulfonylpyridin-2-yl)ethan-1-amine hydrochloride], for which the pIC50 at HCN2 is 5.89; at hERG channel it was 5.47; at HCN1 it was 5.38; against hNav1.5, 4.65; at HCN4 it was 5.11. For the same molecule, the efflux ratio at 1 h, 10 μM on MDR1 (P-glycoprotein) was 10.4.

`CS(=O)(=O)c1ccc(F)c(C[C@H](N)c2ccccc2-c2noc3c(F)cccc23)n1` [Example 26, (S)-1-[2-(7-Fluorobenzo[d]isoxazol-3-yl)phenyl]-2-(3-fluoro-6-methylsulfonylpyridin-2-yl)ethan-1-amine hydrochloride]: the pIC50 on HCN2 was 5.74; at hERG channel, 4.82; at HCN1 it was 4.59; at hNav1.5, 4.72; at HCN4, less than 4.52. In addition, the efflux ratio at 1 h, 10 μM at MDR1 (P-glycoprotein) stood at 4.2.

Regarding `COc1cc2c(cc1OC)CC(=O)N(CCCN(C)C[C@H]1Cc3cc(OC)c(OC)cc31)CC2` [ivabradine, Ivabradine], the Kp at 30 min in data set [3] came to 0.57. The “Effect on GPIAS (behavioural gap detection)” value in data set [4] is “reversed GPIAS; also recorded: restored”. Besides, in the data set on Black6 mice, the “Therapeutic window between analgesia and bradycardia” value is recorded as “little therapeutic window”. Further, in the data set on mice, normal hearing, the “Effect on ABR threshold or latency” value is “no significant difference”. The “Effect on GPIAS in noise-exposed guinea pigs showing no behavioural tinnitus” value in [5] (control experiments, n=3) is listed as “without effect on GPIAS; also recorded: without effect on gap detection”. Besides, the “Effect on reduced GPIAS after noise exposure” value in data set [5] (guinea pigs with impaired GPIAS, 5 mg/kg s.c.) was “rapidly and completely reversed; also recorded: fully restores GPIAS”.
